Experimental data from US20150315211A1, “SMALL MOLECULES FOR THE MODULATION OF MCL-1 AND METHODS OF MODULATING CELL DEATH, CELL DIVISION, CELL DIFFERENTIATION AND METHODS OF TREATING DISORDERS” (priority 2010, published 2015).
Like-named read-outs stand apart in the source and are kept apart here.

Assays:
BCL-XLΔC = BCL-XLΔC (Homo sapiens, UniProt Q07817); assay: High-throughput competitive FP binding screen, FITC-BAD BH3/BCL-XLΔC interaction
MCL-1ΔNΔC [1] = target: MCL-1ΔNΔC (Homo sapiens, UniProt Q07820); assay: High-throughput competitive FP binding screen, FITC-MCL-1 SAHB/MCL-1ΔNΔC interaction; design: the C-terminal alpha-helix was deleted from each of these constructs; GST (N, cleaved yes); made in house
MCL-1ΔNΔC [2] = assay: as above
[3] = FITC-BAD BH3/BCL-XLΔC interaction pair, competitive FP screen
[4] = FITC-MCL-1 SAHB/MCL-1ΔNΔC interaction pair, competitive FP screen
[5] = selectivity for MCL-1ΔNΔC over BCL-XLΔC targeting (BCL-XL % Bound minus MCL-1 % Bound)

Sequence of BCL-XLΔC (Q07817 1-212 limits assumed, stated change not applied): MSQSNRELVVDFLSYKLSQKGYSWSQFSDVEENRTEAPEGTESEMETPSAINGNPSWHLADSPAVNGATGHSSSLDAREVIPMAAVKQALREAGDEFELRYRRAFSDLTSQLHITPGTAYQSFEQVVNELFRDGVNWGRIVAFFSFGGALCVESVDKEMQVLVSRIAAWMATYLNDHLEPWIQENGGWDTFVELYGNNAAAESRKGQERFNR
Sequence of MCL-1ΔNΔC (Homo sapiens, UniProt Q07820) (Q07820 172-320 limits assumed, stated change not applied): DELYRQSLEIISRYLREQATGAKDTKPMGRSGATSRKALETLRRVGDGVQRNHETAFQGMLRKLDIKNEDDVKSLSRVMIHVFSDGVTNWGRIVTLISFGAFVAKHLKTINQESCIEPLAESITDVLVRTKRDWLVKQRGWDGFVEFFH

Row | SMILES | BCL-XL % Bound (BCL-XLΔC) [%] | MCL-1% Bound (MCL-1ΔNΔC [1]) [%] | Spec Values (MCL-1ΔNΔC [2]) | BCL-XL % Bound (BCL-XLΔC; [3]) [%] | MCL-1% Bound (MCL-1ΔNΔC [1]; [4]) [%] | Spec Values (MCL-1ΔNΔC [2]; [5])
1 | CCN1C(=O)C(=Cc2ccc(O)c(I)c2)C(=O)N(CC)C1=S | 100.4 | 39.32 | 61.04 | – | – | –
2 | O=C1/C(=C\C=C\c2ccco2)SC(=S)N1NS(=O)(=O)c1ccccc1 | – | – | – | 89.9 | 23.0 | 66.9
3 | CC1CCN(C2=NN3C(=N)C(Cc4ccc(SCc5ccco5)o4)C(=O)N=C3S2)CC1 (stereo not drawn) | – | – | – | 84.68 | 14.3 | 70.38
4 | COC(=O)c1c(NC(=O)C2CC2)sc(C)c1C | – | – | – | 101 | 53.71 | 47.29
5 | CC1=C(C#N)C(=O)N(CCc2ccccc2)C(=O)/C1=C/c1ccc(-c2ccc3c(c2)COC3=O)o1 | – | – | – | 84.79 | 30.81 | 53.97
6 | Cc1ccc(CN(C)C(=O)c2ccccc2OCCOc2ccccc2)o1 | – | – | – | 114.2 | 68.8 | 45.38
7 | CN(C)c1ccc(/C=C2\SC(=O)N(CCC(=O)Nc3ccccc3)C2=O)cc1 | – | – | – | 92.22 | 29.45 | 62.76
8 | O=C(/C=C/c1ccc(Br)o1)OCC(=O)c1c[nH]c2ccccc12 | – | – | – | 105.6 | 53.49 | 52.14
9 | COC(=O)c1c(NC(=S)Nn2cnnc2)sc2c1CCC(C)C2 (stereo not drawn) | – | – | – | 77.55 | 25.26 | 52.28
10 | O=C(ON1C(=O)CCC1=O)c1ccc(Cl)cc1Cl | – | – | – | 96.73 | 30.48 | 66.25
11 | Oc1ccc(SSc2ccc(O)cc2)cc1 | – | – | – | 104.4 | 58.12 | 46.28
12 | CC1=C(C#N)C(=O)N(C)C(=O)/C1=C/c1ccc(-c2cccc(Cl)c2C)o1 | – | – | – | 86.24 | 3.369 | 82.88
13 | CCCN1C(=O)/C(=C/c2ccc(-c3cccc(C(F)(F)F)c3)o2)NC1=S | – | – | – | 85.65 | 27.93 | 57.72
14 | Nc1c(C(=O)NCc2ccco2)c2nc3ccccc3nc2n1CCc1ccccc1F | 99.9 | 6.6 | 93.2 | – | – | –
15 | CC(C)CNC(=O)CCc1nc(-c2ccccc2)no1 | – | – | – | 92.21 | 37.48 | 54.73
16 | O=C1C=CC(=O)C(Sc2nnnn2-c2ccccc2)=C1 | – | – | – | 101.3 | 45.56 | 55.69
17 | Cc1ccc(C2=NC(=O)C(Cc3cc(O)c(O)c(Br)c3)S2)cc1 (stereo not drawn) | – | – | – | 96.59 | 2.607 | 93.98
18 | CCOc1ccc(NC(=O)CC2C(=O)N(Cc3ccco3)C(=S)N2CCNC(C)=O)cc1 (stereo not drawn) | – | – | – | 102.4 | 19.69 | 82.72
19 | O=c1c(O)c(-c2cc(O)c(O)c(O)c2)oc2cc(O)cc(O)c12 [drawing 222] | – | – | – | 102.4 | 34.13 | 68.23
20 | CN1CCCN(Cc2cc(C(C)(C)C)c(O)c(C(C)(C)C)c2)CC1 | – | – | – | 83.5 | 25.21 | 58.29
21 | CCOC(=O)C1=C(NC(=O)c2ccccc2)S/C(=C\c2ccc(C)o2)C1=O | – | – | – | 101.2 | 43.16 | 58.06
22 | Oc1ccc(CNc2ccccc2O)cc1 | – | – | – | 89.38 | 36.26 | 53.12
23 | CC1=C/C(=N\Nc2ccccc2Cl)CC1 | – | – | – | 99.01 | 34.4 | 64.61
24 | Cc1cc2c(C(C)C)c(O)c(O)c(C=O)c2c(O)c1-c1c(C)cc2c(C(C)C)c(O)c(O)c(C=O)c2c1O [drawing 158] | 101 | 3.955 | 97.07 | – | – | –
25 | O=C1CSCC(=O)N1c1cc(C(F)(F)F)cc(C(F)(F)F)c1 | – | – | – | 101.7 | 45.62 | 56.05
26 | Cn1c(S)nnc1CNc1cccc(C(F)(F)F)c1 | – | – | – | 102.2 | 55.09 | 47.12
27 | CC1=NOC(=O)/C1=C/c1ccc(-c2ccc(Cl)cc2)o1 [drawing 255] | 101.5 | 38.47 | 62.98 | – | – | –
28 | O=C1N/C(=N/c2ccccc2)S/C1=C/C=C/c1ccco1 | – | – | – | 97.59 | 48.95 | 48.63

Row | SMILES | BCL-XL % Bound (BCL-XLΔC) [%] | MCL-1% Bound (MCL-1ΔNΔC [1]) [%] | Spec Values (MCL-1ΔNΔC [2]) | BCL-XL % Bound (BCL-XLΔC; [3]) [%] | MCL-1% Bound (MCL-1ΔNΔC [1]; [4]) [%] | Spec Values (MCL-1ΔNΔC [2]; [5])
29 | Cc1cs/c(=N\C2CCCCC2)n1/N=C/c1ccc(O)c(O)c1O | – | – | – | 89.95 | −16.27 | 106.2
30 | CCN(CC)S(=O)(=O)c1ccc(-c2ccc(/C=N/N=C3\NC(=O)C(CC(=O)Nc4ccccc4)S3)o2)cc1 (stereo not drawn) | – | – | – | 100.7 | 44.37 | 56.3
31 | O=C1C=CC(=O)C(CCC2=CC(=O)C=CC2=O)=C1 | – | – | – | 93.01 | 31.21 | 61.8
32 | CCOC(=O)c1ccc2nc(NC(=O)CSc3nc(C)cc(=O)[nH]3)sc2c1 | – | – | – | 106.3 | 56.55 | 49.78
33 | CCOc1ccc(S(=O)(=O)NC2C=C(Sc3nc[nH]n3)C(=O)c3ccccc32)cc1 (stereo not drawn) | – | – | – | 103.4 | 2.333 | 101.1
34 | COc1ccc2c(c1)CC[C@@H]1C2CC[C@@]2(C)C1CC[C@@H]2NCCCCCCN1C(=O)CCC1=O (stereo partly drawn) [drawing 365] | – | – | – | 106.3 | 56.6 | 49.67
35 | O=c1oc2c(-c3cccc(Cl)c3)cc(O)cc2s1 | – | – | – | 76.15 | 11.2 | 64.95
36 | Cc1ccc(C)n1-c1cc(Cl)ccc1C(=O)O | – | – | – | 75.93 | −3.914 | 79.84
37 | O=C(CSc1ncc(C(F)(F)F)cc1Cl)NC(=O)CN1CCCC1=O | – | – | – | 98.97 | 43.37 | 55.6
38 | Oc1c(Cl)cc(Cl)c(Cl)c1Cc1c(O)c(Cl)cc(Cl)c1Cl [Hexachlorophene, reference compound] | 100.4 | 41.01 | 59.35 | – | – | –
39 | O=C1NC(=O)N(CCc2ccc(F)cc2)C(=O)/C1=C\c1ccc(O)c(O)c1 | 81.34 | 30.59 | 50.75 | – | – | –
40 | Cc1nn(-c2ccccc2)c2nc3ccccc3c(N3CCOCC3)c12 | – | – | – | 98.28 | 47.31 | 50.97
41 | CC1=C(C#N)C(=O)N(CCc2ccccc2)C(=O)/C1=C/c1ccc(-c2ccc(S(N)(=O)=O)cc2)o1 | – | – | – | 97.35 | 7.037 | 90.31
42 | CC1=C(C)C/S(=N\S(=O)(=O)c2ccc(Cl)cc2)N(S(=O)(=O)c2ccc(Cl)cc2)C1 (stereo not drawn) | – | – | – | 100.2 | 50.42 | 49.76
43 | CC(C)(C)c1cc(O)c2oc(=O)c(-c3nc(-c4ccccc4F)no3)cc2c1 | – | – | – | 71.1 | −13.01 | 84.11
44 | COc1ccc(C(Nc2cc(C)ccn2)c2ccc3cccnc3c2O)cc1O (stereo not drawn) | – | – | – | 93.02 | 27.17 | 65.85
45 | O=c1c(O)c(-c2ccc(O)c(O)c2)oc2cc(O)cc(O)c12 [Quercetin, reference compound] | – | – | – | 105.3 | 16.69 | 88.65
46 | O=C(CSc1nnc(C2CC2)n1Cc1ccco1)c1cccc(Cl)c1 | – | – | – | 98.2 | 51.14 | 47.06
47 | CCCCn1c(=O)[nH]c(=O)c2c1nc(-c1cccs1)c(=O)n2C | – | – | – | 68.85 | 6.013 | 62.84
48 | CCOC(=O)c1cc(C#N)c(SCC(=O)c2cc3ccccc3oc2=O)[nH]c1=O | – | – | – | 100.2 | 31.28 | 68.9
49 | O=C(OCC1O[C@H](OC(=O)c2cc(O)c(O)c(OC(=O)c3cc(O)c(O)c(O)c3)c2)[C@H](OC(=O)c2cc(O)c(O)c(OC(=O)c3cc(O)c(O)c(O)c3)c2)[C@@H](OC(=O)c2cc(O)c(O)c(OC(=O)c3cc(O)c(O)c(O)c3)c2)[C@@H]1OC(=O)c1cc(O)c(O)c(OC(=O)c2cc(O)c(O)c(O)c2)c1)c1cc(O)c(O)c(OC(=O)c2cc(O)c(O)c(O)c2)c1 (stereo partly drawn) [drawing 25] | – | – | – | 98.26 | 15.94 | 82.32
50 | COc1ccc(-c2nc3scc(CCNC(=O)/C=C/c4ccco4)n3n2)cc1 | – | – | – | 86.75 | 40.51 | 46.24
51 | O=C(O)C1Nc2c(I)cccc2C2C=CCC12 (stereo not drawn) | – | – | – | 100.3 | 36.12 | 64.16
52 | CCN(CC)c1ccc(C2C(C#N)=C(N)N(c3cccc(C)c3)C3=C2C(=O)CCC3)cc1 (stereo not drawn) | – | – | – | 98.46 | 53.01 | 45.46
53 | N#C/C(=C\c1ccc(O)c(O)c1)C(N)=S [Tyrphostin 47, reference compound] | 100.8 | 34.55 | 66.21 | – | – | –
54 | CCOC(=O)C(C)Oc1cccc2c(=O)n(CC(=O)Nc3ccc4c(c3)CCCO4)ccc12 (stereo not drawn) | – | – | – | 102 | 34.53 | 67.48
55 | O=C(CSc1nnc(-c2ccco2)c(-c2ccco2)n1)N1c2ccccc2Sc2ccc(Cl)cc21 | – | – | – | 98.3 | 37.6 | 60.7
